According to BindingDB's records for patent US20240150287 (Hangzhou Apeloa Medicine Research Institute Co., 2024):
Where “and” joins values, the source holds several entries; their conditions need not be identical. Equal entries are not always repeated.

The compounds below were run against T1, Mucosal addressin cell adhesion molecule 1/Integrin alpha-4/beta-7 (Homo sapiens, UniProt P13612+P26010+Q13477) (assay: BINDING INHIBITION ACTIVITY EVALUATION TEST).
T1 sequence (P13612 whole entry): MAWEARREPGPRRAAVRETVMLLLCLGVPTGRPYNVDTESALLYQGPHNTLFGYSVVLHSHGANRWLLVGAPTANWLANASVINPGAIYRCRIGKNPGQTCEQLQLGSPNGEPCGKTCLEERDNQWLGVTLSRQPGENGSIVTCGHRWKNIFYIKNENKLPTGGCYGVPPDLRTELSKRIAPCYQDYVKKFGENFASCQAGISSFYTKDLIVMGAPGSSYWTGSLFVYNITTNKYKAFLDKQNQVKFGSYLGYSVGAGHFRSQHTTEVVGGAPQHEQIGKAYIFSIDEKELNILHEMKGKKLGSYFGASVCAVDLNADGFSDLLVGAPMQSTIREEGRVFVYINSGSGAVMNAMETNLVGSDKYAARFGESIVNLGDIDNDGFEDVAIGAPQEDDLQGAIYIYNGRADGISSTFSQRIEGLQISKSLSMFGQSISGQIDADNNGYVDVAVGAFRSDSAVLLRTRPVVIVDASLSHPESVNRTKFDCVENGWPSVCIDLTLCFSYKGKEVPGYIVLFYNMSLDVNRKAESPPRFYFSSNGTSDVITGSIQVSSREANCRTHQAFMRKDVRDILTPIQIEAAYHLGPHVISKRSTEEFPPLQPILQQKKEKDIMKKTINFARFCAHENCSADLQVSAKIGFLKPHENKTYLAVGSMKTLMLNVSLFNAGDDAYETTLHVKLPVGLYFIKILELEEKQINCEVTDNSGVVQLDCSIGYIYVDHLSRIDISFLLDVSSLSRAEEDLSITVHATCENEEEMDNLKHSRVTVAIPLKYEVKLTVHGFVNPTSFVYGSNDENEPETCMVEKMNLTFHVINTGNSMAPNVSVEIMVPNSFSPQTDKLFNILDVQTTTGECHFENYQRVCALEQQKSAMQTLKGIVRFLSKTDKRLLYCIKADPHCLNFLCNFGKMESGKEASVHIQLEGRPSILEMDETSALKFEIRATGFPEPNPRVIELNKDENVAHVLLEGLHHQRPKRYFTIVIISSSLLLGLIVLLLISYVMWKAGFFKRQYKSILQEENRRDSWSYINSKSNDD
T1 sequence (P26010 whole entry): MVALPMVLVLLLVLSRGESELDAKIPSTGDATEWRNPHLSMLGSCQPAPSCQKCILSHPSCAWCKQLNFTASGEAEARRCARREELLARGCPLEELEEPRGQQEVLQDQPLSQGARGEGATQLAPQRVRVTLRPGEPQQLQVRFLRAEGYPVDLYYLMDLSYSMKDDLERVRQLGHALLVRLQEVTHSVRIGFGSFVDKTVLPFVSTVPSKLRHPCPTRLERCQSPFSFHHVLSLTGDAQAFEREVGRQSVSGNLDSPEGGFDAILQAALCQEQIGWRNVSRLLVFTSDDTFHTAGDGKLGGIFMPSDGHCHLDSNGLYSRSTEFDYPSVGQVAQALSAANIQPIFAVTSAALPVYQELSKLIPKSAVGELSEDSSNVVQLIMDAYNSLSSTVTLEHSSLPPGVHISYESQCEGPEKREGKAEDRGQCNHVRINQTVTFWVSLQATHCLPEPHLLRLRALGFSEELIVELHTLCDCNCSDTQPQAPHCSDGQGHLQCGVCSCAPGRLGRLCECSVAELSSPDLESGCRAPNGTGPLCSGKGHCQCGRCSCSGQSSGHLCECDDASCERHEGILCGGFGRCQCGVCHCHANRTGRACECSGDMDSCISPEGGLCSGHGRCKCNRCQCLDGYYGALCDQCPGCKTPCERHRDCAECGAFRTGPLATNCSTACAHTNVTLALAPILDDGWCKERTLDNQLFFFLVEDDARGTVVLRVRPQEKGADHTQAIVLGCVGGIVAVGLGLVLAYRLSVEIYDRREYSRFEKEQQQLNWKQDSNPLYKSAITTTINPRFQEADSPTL
T1 sequence (Q13477 whole entry): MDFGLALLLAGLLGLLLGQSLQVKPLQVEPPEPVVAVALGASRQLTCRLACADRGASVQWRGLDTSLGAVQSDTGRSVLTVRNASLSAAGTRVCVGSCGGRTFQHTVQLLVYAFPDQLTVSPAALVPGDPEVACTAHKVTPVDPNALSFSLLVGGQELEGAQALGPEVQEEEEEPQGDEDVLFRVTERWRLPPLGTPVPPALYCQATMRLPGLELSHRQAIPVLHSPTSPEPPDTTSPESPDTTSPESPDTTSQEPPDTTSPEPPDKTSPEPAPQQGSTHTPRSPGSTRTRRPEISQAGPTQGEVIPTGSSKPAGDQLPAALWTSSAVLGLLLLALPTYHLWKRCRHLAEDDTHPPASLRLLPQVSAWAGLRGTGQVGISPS
Procedure: Coat the 96-well microplate (Costar) with 50 μL of recombinant human MAdCAM-1 (R&D Systems) solution per well, and incubate overnight (12-18 hours) at 4° C. Wash three times with 150 μL of TBS buffer per well. Block plate with 150 μL per well with blocking buffer for 1 h at 37° C. Wash three times with 150 μL of TBS buffer per well. Dilute the recombinant human integrin α4β7 (R&D Systems) with TBS buffer containing 0.1% bovine serum albumin (BSA), then add to the 96 well plate with 50 μL per well. Add 1 μL of test compound or DMSO, cover, incubate at room temperature for 2 h, wash three times with 150 μL of TBS buffer per well. Dilute the anti-β7 antibody (R&D Systems) with 0.1% BSA TBS buffer, then add to the 96 well plate with 50 μL per well, cover, incubate at room temperature for 1 h, wash three times with 150 μL of TBS buffer per well. Add 50 μL of streptavidin-HRP (R&D Systems) per well, incubate at room temperature for 20 min, wash three times with 150 μL of TBS buffer per well. Add 50 μL of TMB substrate solution (Sigma) per well, incubate at room temperature for 5-30 min, and add 25 μL of stop solution per well to stop the reaction. Finally, measure absorbance at 450 nm with microplate reader (SpectraMax 340PC. Molecular Devices). Repeat the test to find the binding rate […] at each concentration when the absorbance of the well without the test substance is used as 100%, and calculate the concentration IC50 that causes 50% binding inhibition.

Row | Structure (SMILES) | IC50
1 | COC(=O)[C@H](Cc1ccc(N2C(=O)C3(CC3)c3cc(F)c(F)cc32)cc1)NC(c1ccccc1)(c1ccccc1)c1ccccc1 [US20240150287, Example 1] | 14.3 nM
2 | COC(=O)[C@H](Cc1ccc(N2C(=O)C3(CC3)c3cccc(Cl)c32)cc1)NC(c1ccccc1)(c1ccccc1)c1ccccc1 [US20240150287, Example 2] | 2.57 nM
3 | COC(=O)[C@H](Cc1ccc(N2C(=O)C3(CC3)c3cccc(OC)c32)cc1)NC(c1ccccc1)(c1ccccc1)c1ccccc1 [US20240150287, Example 3] | 5.48 nM
4 | COC(=O)[C@H](Cc1ccc(N2C(=O)C3(CC3)c3ccc(F)cc32)cc1)NC(c1ccccc1)(c1ccccc1)c1ccccc1 [US20240150287, Example 4] | 2.54 nM and 8.02 nM
5 | COC(=O)[C@H](Cc1ccc(N2C(=O)C3(CC3)c3cccc(F)c32)cc1)NC(c1ccccc1)(c1ccccc1)c1ccccc1 [US20240150287, Example 5] | 6.21 nM
6 | COC(=O)[C@H](Cc1ccc(N2C(=O)C3(CC3)c3ccccc32)cc1)NC(c1ccccc1)(c1ccccc1)c1ccccc1 [US20240150287, Example 6] | 5.81 nM
7 | COC(=O)[C@H](Cc1ccc(N2C(=O)C3(CCOCC3)c3cccc(Cl)c32)cc1)NC(c1ccccc1)(c1ccccc1)c1ccccc1 [US20240150287, Example 7] | 16.1 nM
8 | COC(=O)[C@H](Cc1ccc(N2C(=O)C3(CC3)c3cc(F)c(Cl)cc32)cc1)NC(c1ccccc1)(c1ccccc1)c1ccccc1 [US20240150287, Example 8] | 17.6 nM
9 | COC(=O)[C@H](Cc1ccc(N2C(=O)C3(CC3)c3cc(F)ccc32)cc1)NC(c1ccccc1)(c1ccccc1)c1ccccc1 [US20240150287, Example 9] | 95.5 nM
10 | COC(=O)[C@H](Cc1ccc(N2C(=O)C(C)(C)c3cccc(Cl)c32)cc1)NC(c1ccccc1)(c1ccccc1)c1ccccc1 [US20240150287, Example 10] | 38.8 nM
11 | COC(=O)[C@H](Cc1ccc(N2C(=O)C3(CC3)c3cc(F)c(N(C)C)cc32)cc1)NC(c1ccccc1)(c1ccccc1)c1ccccc1 [US20240150287, Example 11] | 3.05 nM
12 | COC(=O)[C@H](Cc1ccc(N2C(=O)C3(CC3)c3cc(N(C)C)ccc32)cc1)NC(c1ccccc1)(c1ccccc1)c1ccccc1 [US20240150287, Example 12] | 4.15 nM
13 | COC(=O)[C@H](Cc1ccc(N2C(=O)C3(CC3)c3ccc(F)c(F)c32)cc1)NC(c1ccccc1)(c1ccccc1)c1ccccc1 [US20240150287, Example 15] | 5.62 nM
14 | COC(=O)[C@H](Cc1ccc(N2C(=O)C3(CC3)c3cccnc32)cc1)NC(c1ccccc1)(c1ccccc1)c1ccccc1 [US20240150287, Example 16] | 0.75 nM
15 | COC(=O)[C@H](Cc1ccc(N2C(=O)C3(CC3)c3cccc(Cl)c32)cc1)NC(=O)c1c(Cl)cc(Cl)cc1Cl [US20240150287, Example 17] | 64.2 nM
16 | COC(=O)[C@H](Cc1ccc(N2C(=O)C3(CC3)c3cccc(Cl)c32)cc1)NC(=O)c1c(Cl)cc(N2CCOCC2)cc1Cl [US20240150287, Example 19] | 11.4 nM

Row | Structure (SMILES) | IC50
17 | COC(=O)[C@H](Cc1ccc(N2C(=O)C3(CC3)c3cccc(Cl)c32)cc1)NC(=O)c1c(Cl)cc(N2CC3CC2CO3)cc1Cl (stereo partly specified) [US20240150287, Example 20] | 4.15 nM
18 | COC(=O)[C@H](Cc1ccc(N2C(=O)C3(CC3)c3cccc(Cl)c32)cc1)NC(=O)c1c(Cl)cc(N2CCC(N3CCOCC3)CC2)cc1Cl [US20240150287, Example 21] | 23.8 nM
19 | COC(=O)[C@H](Cc1ccc(-n2c(=O)n(C)c3cccc(Cl)c32)cc1)NC(c1ccccc1)(c1ccccc1)c1ccccc1 [US20240150287, Example 22] | 1.19 nM
20 | COC(=O)[C@H](Cc1ccc(-n2c(=O)n(C3CC3)c3cc(Cl)ccc32)cc1)NC(c1ccccc1)(c1ccccc1)c1ccccc1 [US20240150287, Example 23] | 143 nM
21 | COC(=O)[C@H](Cc1ccc(-n2c(=O)n(C3CC3)c3ccc(Cl)cc32)cc1)NC(c1ccccc1)(c1ccccc1)c1ccccc1 [US20240150287, Example 24] | 5.67 nM
22 | COC(=O)[C@H](Cc1ccc(-n2c(=O)n(C3CC3)c3cccc(Cl)c32)cc1)NC(c1ccccc1)(c1ccccc1)c1ccccc1 [US20240150287, Example 25] | 7.5 nM
23 | COC(=O)[C@H](Cc1ccc(-n2c(=S)n(C)c3cccc(Cl)c32)cc1)NC(c1ccccc1)(c1ccccc1)c1ccccc1 [US20240150287, Example 26] | 160 nM
24 | COC(=O)[C@H](Cc1ccc(-n2c(=O)n(C3CC3)c3cccc(F)c32)cc1)NC(c1ccccc1)(c1ccccc1)c1ccccc1 [US20240150287, Example 27] | 8.81 nM
25 | COC(=O)[C@H](Cc1ccc(-n2c(=O)n(C3CCN(C)CC3)c3cccc(Cl)c32)cc1)NC(c1ccccc1)(c1ccccc1)c1ccccc1 [US20240150287, Example 29] | 18.1 nM
26 | COC(=O)[C@H](Cc1ccc(-n2c(=O)n(C)c3cccc(F)c32)cc1)NC(c1ccccc1)(c1ccccc1)c1ccccc1 [US20240150287, Example 30] | 1.83 nM
27 | COC(=O)[C@H](Cc1ccc(-n2c(=O)n(C)c3cc(F)cc(F)c32)cc1)NC(c1ccccc1)(c1ccccc1)c1ccccc1 [US20240150287, Example 31] | 5.34 nM
28 | COC(=O)[C@H](Cc1ccc(-n2c(=O)n(C)c3cc(Cl)c(Cl)cc32)cc1)NC(c1ccccc1)(c1ccccc1)c1ccccc1 [US20240150287, Example 32] | 4.19 nM
29 | COC(=O)[C@H](Cc1ccc(-n2c(=O)n(C)c3ccc(F)c(F)c32)cc1)NC(c1ccccc1)(c1ccccc1)c1ccccc1 [US20240150287, Example 33] | 2.7 nM
30 | COC(=O)[C@H](Cc1ccc(-n2c(=O)n(C)c3c(F)c(F)ccc32)cc1)NC(c1ccccc1)(c1ccccc1)c1ccccc1 [US20240150287, Example 34] | 10.5 nM
31 | COC(=O)[C@H](Cc1ccc(-n2c(=O)n(C)c3cccc(OC)c32)cc1)NC(c1ccccc1)(c1ccccc1)c1ccccc1 [US20240150287, Example 35] | 0.45 nM
